This test addresses Synaptic vesicular amine transporter (Homo sapiens) (UniProt Q05940). The test can be described thus: SLC18A2 vesicular uptake inhibitors, dose response (AID 1794817). As to conditions: HEK-293 SLC18A2 OE, FFN206 uptake fluorescence.

Molecules are shown by their SMILES.

Synaptic vesicular amine transporter (Homo sapiens), sequence (Q05940 whole entry, looked up): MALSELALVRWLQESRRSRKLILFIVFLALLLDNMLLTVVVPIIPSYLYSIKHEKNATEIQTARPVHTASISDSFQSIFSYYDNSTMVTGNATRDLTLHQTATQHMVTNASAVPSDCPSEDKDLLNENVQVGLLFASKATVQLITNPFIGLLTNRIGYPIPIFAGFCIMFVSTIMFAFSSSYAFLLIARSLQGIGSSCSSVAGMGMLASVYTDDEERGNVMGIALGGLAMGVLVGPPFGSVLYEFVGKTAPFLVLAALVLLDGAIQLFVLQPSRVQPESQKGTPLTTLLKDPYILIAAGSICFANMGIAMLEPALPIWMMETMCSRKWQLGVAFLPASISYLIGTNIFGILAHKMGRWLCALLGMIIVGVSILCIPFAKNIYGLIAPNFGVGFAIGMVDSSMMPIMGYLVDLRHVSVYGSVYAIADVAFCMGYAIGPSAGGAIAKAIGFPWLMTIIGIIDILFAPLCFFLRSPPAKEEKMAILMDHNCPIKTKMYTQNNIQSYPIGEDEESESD

In general, IC50 refers to the concentration that inhibits the measured activity by half. For `COc1cc2c(cc1OC)C1CC(=O)C(CC(C)C)CN1CC2` (configuration not stated), the concentration for half-maximal inhibition (IC50) is 19.8 nM.

As to `CNc1ccc2c(CCN)cc(=O)oc2c1`, the concentration for half-maximal inhibition (IC50) was 3560 nM.

The record behind these values is PubChem BioAssay AID1794817.
